Data as given in patent US6737383B1, “Herbicidal oxadiazolidines” (priority 1999, dated 2004).

Experiments:
wild oat = test: Test B pre/postemergence wild oat; assay type: in vivo, Avena fatua
Procedure, shortened: (§1)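 Herbicidal effect was estimated by eye on a ten-point control scale after plants spent twelve to sixteen days in a greenhouse following soil or foliar treatment. Foliar sprays targeted plants at one to four leaves; all doses were formulated in a non-phytotoxic solvent with surfactant.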

surinam grass = test: Test B pre/postemergence surinam grass; assay type: in vivo, Brachiaria decumbens
Procedure, shortened: as §1

crabgrass = test: Test B pre/postemergence crabgrass; assay type: in vivo, Digitaria sanguinalis
Procedure, shortened: as §1

cocklebur = test: Test B pre/postemergence cocklebur; assay type: in vivo, Xanthium strumarium
Procedure, shortened: as §1

purple nutsedge = test: Test B pre/postemergence purple nutsedge; assay type: in vivo, Cyperus rotundus; conditions: Postemergence; for Nutsedge plant response rating: 10 is complete control
Procedure, shortened: as §1

blackgrass = test: Test B pre/postemergence blackgrass; assay type: in vivo, Alopecurus myosuroides
Procedure, shortened: as §1

wheat = test: Test B pre/postemergence wheat; assay type: in vivo, Triticum aestivum
Procedure, shortened: as §1

corn = test: Test B pre/postemergence corn; assay type: in vivo, Zea mays
Procedure, shortened: as §1

rape = test: Test B pre/postemergence rape; assay type: in vivo, Brassica napus
Procedure, shortened: as §1

bedstraw = test: Test B pre/postemergence bedstraw; assay type: in vivo, Galium aparine
Procedure, shortened: as §1

morningglory = test: Test B pre/postemergence morningglory; assay type: in vivo, Ipomoea hederacea
Procedure, shortened: as §1

pigweed = test: Test B pre/postemergence pigweed; assay type: in vivo, Amaranthus retroflexus
Procedure, shortened: as §1

velvetleaf = test: Test B pre/postemergence velvetleaf; assay type: in vivo, Abutilon theophrasti
Procedure, shortened: as §1

giant foxtail = test: Test B pre/postemergence giant foxtail; assay type: in vivo, Setaria faberii
Procedure, shortened: as §1

soybean = test: Test B pre/postemergence soybean; assay type: in vivo, Glycine max
Procedure, shortened: as §1

[1] = Postemergence, Rate 62 g/ha, scale of 0 to 10, 0 is no effect, 10 is complete control
[2] = Postemergence, Rate 500 g/ha, scale of 0 to 10 where 0 is no effect and 10 is complete control
[3] = Preemergence, Rate 62 g/ha, scale 0 to 10 (0 no effect, 10 complete control)
[4] = Preemergence, Rate 125 g/ha, scale 0 to 10, 0 is no effect, 10 is complete control
[5] = Preemergence, Rate 500 g/ha, scale of 0 to 10 where 0 is no effect and 10 is complete control
[6] = Rate 250 g/ha, Postemergence, scale of 0 to 10 where 0 is no effect and 10 is complete control
[7] = Postemergence, Rate 125 g/ha, scale 0 to 10, 0 is no effect, 10 is complete control

CC(C)N(C(=O)n1oc(=O)n(CCC2OCCCO2)c1=O)c1ccccc1 [Compound 561]
Wild oats plant response rating (wild oat; [1]): 0 | Plant response rating, Wild oats (wild oat; [2]): 2 | Wild oats plant response rating (wild oat; [3]): 0 | Wild oats plant response rating (wild oat; [4]): 2 | Wild oats plant response rating (0 to 10 scale) (wild oat; Preemergence, Rate 250 g/ha): 5 | Wild oats plant response rating (wild oat; [5]): 9 | Plant response rating, Wild oats (wild oat; [6]): 2 | B. signalgrass plant response rating (surinam grass; [1]): 0 | B. signalgrass plant response rating (surinam grass; [7]): 0 | Plant response rating, B. signalgrass (surinam grass; [2]): 8 | B. signalgrass plant response rating (surinam grass; [3]): 4 | B. signalgrass plant response rating (surinam grass; [4]): 4 | B. signalgrass plant response rating (0 to 10 scale, 0 is no effect, 10 is complete control) (surinam grass; Preemergence, Rate 250 g/ha): 8 | B. signalgrass plant response rating (surinam grass; [5]): 9 | Plant response rating, B. signalgrass (surinam grass; [6]): 6 | Crabgrass plant response rating (crabgrass; [1]): 2 | Crabgrass plant response rating (crabgrass; [7]): 3 | Plant response rating, Crabgrass (crabgrass; [2]): 9 | Crabgrass plant response rating (crabgrass; [3]): 9 | Crabgrass plant response rating (crabgrass; [4]): 9 | Crabgrass plant response rating (0 to 10 scale) (crabgrass; Preemergence, Rate 250 g/ha): 9 | Crabgrass plant response rating (crabgrass; [5]): 9 | Plant response rating, Crabgrass (crabgrass; [6]): 4 | Cocklebur plant response rating (cocklebur; [1]): 0 | Cocklebur plant response rating (cocklebur; [7]): 0 | Plant response rating, Cocklebur (cocklebur; [2]): 0 | Cocklebur plant response rating (cocklebur; [3]): 0 | Cocklebur plant response rating (cocklebur; [4]): 0 | Cocklebur plant response rating (0 to 10 scale) (cocklebur; Preemergence, Rate 250 g/ha): 0 | Cocklebur plant response rating (cocklebur; [5]): 0 | Plant response rating, Cocklebur (cocklebur; [6]): 0 | Nutsedge plant response rating (purple nutsedge; Rate 62 g/ha, scale of 0 to 10, 0 is no effect): 0 | Nutsedge plant response rating (purple nutsedge; Rate 125 g/ha, scale 0 to 10, 0 is no effect): 2 | Plant response rating, Nutsedge (purple nutsedge; Rate 500 g/ha, scale of 0 to 10 where 0 is no effect and 10 is complete control): 4 | Blackgrass plant response rating (blackgrass; [1]): 2 | Blackgrass plant response rating (blackgrass; [7]): 5 | Plant response rating, Blackgrass (blackgrass; [2]): 6 | Blackgrass plant response rating (blackgrass; [3]): 5 | Blackgrass plant response rating (blackgrass; [4]): 7 | Blackgrass plant response rating (0 to 10 scale) (blackgrass; Preemergence, Rate 250 g/ha): 9 | Blackgrass plant response rating (blackgrass; [5]): 9 | Plant response rating, Blackgrass (blackgrass; [6]): 6 | Wheat plant response rating (wheat; [1]): 0 | Plant response rating, Wheat (wheat; [2]): 7 | Wheat plant response rating (wheat; [3]): 0 | Wheat plant response rating (wheat; [4]): 4 | Wheat plant response rating (0 to 10 scale) (wheat; Preemergence, Rate 250 g/ha): 6 | Wheat plant response rating (wheat; [5]): 9 | Plant response rating, Wheat (wheat; [6]): 3 | Corn plant response rating (corn; [1]): 0 | Corn plant response rating (corn; [7]): 0 | Plant response rating, Corn (corn; [2]): 3 | Corn plant response rating (corn; [3]): 0 | Corn plant response rating (corn; [4]): 0 | Corn plant response rating (0 to 10 scale) (corn; Preemergence, Rate 250 g/ha): 2 | Corn plant response rating (corn; [5]): 5 | Plant response rating, Corn (corn; [6]): 0 | Rape plant response rating (rape; [1]): 4 | Rape plant response rating (rape; [7]): 4 | Plant response rating, Rape (rape; [2]): 4 | Rape plant response rating (rape; [3]): 2 | Rape plant response rating (rape; [4]): 2 | Rape plant response rating (0 to 10 scale) (rape; Preemergence, Rate 250 g/ha): 5 | Rape plant response rating (rape; [5]): 9 | Plant response rating, Rape (rape; [6]): 4 | Bedstraw plant response rating (bedstraw; [1]): 0 | Plant response rating, Bedstraw (bedstraw; [2]): 7 | Bedstraw plant response rating (bedstraw; [3]): 0 | Bedstraw plant response rating (bedstraw; [4]): 0 | Bedstraw plant response rating (0 to 10 scale) (bedstraw; Preemergence, Rate 250 g/ha): 2 | Bedstraw plant response rating (bedstraw; [5]): 8 | Morningglory plant response rating (morningglory; [1]): 1 | Morningglory plant response rating (morningglory; [7]): 4 | Plant response rating, Morningglory (morningglory; [2]): 9 | Morningglory plant response rating (morningglory; [3]): 0 | Morningglory plant response rating (morningglory; [4]): 0 | Morningglory plant response rating (0 to 10 scale) (morningglory; Preemergence, Rate 250 g/ha): 2 | Morningglory plant response rating (morningglory; [5]): 4 | Plant response rating, Morningglory (morningglory; [6]): 5 | Redroot pigweed plant response rating (pigweed; [1]): 0 | Plant response rating, Redroot pigweed (pigweed; [2]): 7 | Redroot pigweed plant response rating (pigweed; [3]): 3 | Redroot pigweed plant response rating (pigweed; [4]): 5 | Redroot pigweed plant response rating (0 to 10 scale) (pigweed; Preemergence, Rate 250 g/ha): 9 | Redroot pigweed plant response rating (pigweed; [5]): 9 | Plant response rating, Redroot pigweed (pigweed; [6]): 0 | Velvetleaf plant response rating (velvetleaf; [1]): 0 | Plant response rating, Velvetleaf (velvetleaf; [2]): 0 | Velvetleaf plant response rating (velvetleaf; [3]): 0 | Velvetleaf plant response rating (velvetleaf; [4]): 0 | Velvetleaf plant response rating (0 to 10 scale) (velvetleaf; Preemergence, Rate 250 g/ha): 0 | Velvetleaf plant response rating (velvetleaf; [5]): 2 | Plant response rating, Velvetleaf (velvetleaf; [6]): 0 | Giant foxtail plant response rating (giant foxtail; [1]): 2 | Giant foxtail plant response rating (giant foxtail; [7]): 4 | Plant response rating, Giant foxtail (giant foxtail; [2]): 8 | Giant foxtail plant response rating (giant foxtail; [3]): 0 | Giant foxtail plant response rating (giant foxtail; [4]): 6 | Giant foxtail plant response rating (0 to 10 scale) (giant foxtail; Preemergence, Rate 250 g/ha): 6 | Giant foxtail plant response rating (giant foxtail; [5]): 7 | Plant response rating, Giant foxtail (giant foxtail; [6]): 7 | Soybean plant response rating (soybean; [1]): 2 | Plant response rating, Soybean (soybean; [2]): 5 | Soybean plant response rating (soybean; [3]): 0 | Soybean plant response rating (soybean; [4]): 0 | Soybean plant response rating (0 to 10 scale) (soybean; Preemergence, Rate 250 g/ha): 0 | Soybean plant response rating (soybean; [5]): 2 | Plant response rating, Soybean (soybean; [6]): 3
